Measurements: paper PMC5645246 (Anesthesiology, 2017)
Values joined by “and” are separate entries in the source; they are usually repeats but may differ in a detail not shown here. Identical values can stand only once. “Also recorded” adds a separate entry of the source. Like-named read-outs stand apart in the source and are kept apart here.

What was measured:
α1β3γ2L GABAA receptors [1] = biological target: T1, α1β3γ2L GABAA receptors (Homo sapiens, UniProt P14867+P18507+P28472); assay type: cell-based
α1β3γ2L GABAA receptors [2] = biological target: T1, α1β3γ2L GABAA receptors; assay type: cell-based; settings: for EC5 GABA-evoked currents in the presence of drug, as % of those evoked by 1 mM GABA: 300 μM drug, mean ± SD; for maximum peak current amplitude at high drug concentrations, relative to that produced by 1 mM GABA: EC5 GABA; for maximum peak current amplitude at high drug concentrations, relative to that produced by 1 mM GABA / slope of potentiation concentration-response curve: fit to equation 1
[3] = biological target: α1β3γ2L GABAA receptor open and closed states (Homo sapiens, UniProt P14867+P18507+P28472); assay: Allosteric modeling of direct activation data; assay type: cell-based
α1β3γ2L GABAA receptors [4] = biological target: T1, α1β3γ2L GABAA receptors; settings: 300 μM naphthalene-etomidate; for Percent change in peak current amplitude, GABA EC5 + Etomidate: etomidate 3 μM; for Percent change in peak current amplitude, GABA EC5 + Pentobarbital: pentobarbital 120 μM; for Percent change in peak current amplitude, GABA EC5 + Propofol: propofol 10 μM
[5] = biological target: α1β3γ2L GABAA receptors (β+−α− transmembrane anesthetic sites) (Homo sapiens, UniProt P14867+P18507+P28472); assay: Inhibition of receptor photoaffinity labeling by [3H]azi-etomidate; settings: for slope for inhibition of [3H]azi-etomidate photoincorporation: fit to equation 2
[6] = biological target: α1β3γ2L GABAA receptors (α+−β− and γ+−β− transmembrane anesthetic sites) (Homo sapiens, UniProt P14867+P18507+P28472); assay: Inhibition of receptor photoaffinity labeling by R-[3H]mTFD-MPAB; settings: for slope for inhibition of R-[3H]mTFD-MPAB photoincorporation: fit to equation 2
Aqueous saturation = assay type: physicochemical; settings: aqueous buffer
α1β3γ2L GABAA receptors [7] = biological target: T1, α1β3γ2L GABAA receptors; assay type: cell-based; remark: listed apart in the source
[8] = tested on: GABAA receptor transmembrane anesthetic binding sites; settings: photolabel protection studies; cited from earlier work
[9] = GABA Pre-exposure, mean ± SD, n = 6
[10] = Naphthalene-etomidate Pre-exposure (10 s), mean ± SD, n = 6
[11] = Simultaneous Addition, mean ± SD, n = 6
[12] = listed as Naphthalene-etomidate
[13] = EC5 GABA + 10 μM propofol, fit to equation 2
[14] = absence of naphthalene-etomidate
[15] = presence of 300 μM naphthalene-etomidate

α1β3γ2L GABAA receptors (α+−β− and γ+−β− transmembrane anesthetic sites), sequence (P14867 28-456): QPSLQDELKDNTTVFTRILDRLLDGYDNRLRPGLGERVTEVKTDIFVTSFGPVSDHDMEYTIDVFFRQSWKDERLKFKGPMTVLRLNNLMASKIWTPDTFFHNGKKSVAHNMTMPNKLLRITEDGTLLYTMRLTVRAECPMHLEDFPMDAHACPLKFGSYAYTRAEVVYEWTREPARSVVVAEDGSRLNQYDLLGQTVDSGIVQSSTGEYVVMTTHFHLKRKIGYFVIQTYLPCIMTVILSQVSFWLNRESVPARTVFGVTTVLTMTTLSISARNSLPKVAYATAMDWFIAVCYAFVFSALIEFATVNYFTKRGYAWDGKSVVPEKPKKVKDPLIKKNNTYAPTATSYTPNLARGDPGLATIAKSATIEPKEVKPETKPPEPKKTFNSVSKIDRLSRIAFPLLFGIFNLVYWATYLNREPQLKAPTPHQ
α1β3γ2L GABAA receptors (α+−β− and γ+−β− transmembrane anesthetic sites), sequence (P28472 26-473): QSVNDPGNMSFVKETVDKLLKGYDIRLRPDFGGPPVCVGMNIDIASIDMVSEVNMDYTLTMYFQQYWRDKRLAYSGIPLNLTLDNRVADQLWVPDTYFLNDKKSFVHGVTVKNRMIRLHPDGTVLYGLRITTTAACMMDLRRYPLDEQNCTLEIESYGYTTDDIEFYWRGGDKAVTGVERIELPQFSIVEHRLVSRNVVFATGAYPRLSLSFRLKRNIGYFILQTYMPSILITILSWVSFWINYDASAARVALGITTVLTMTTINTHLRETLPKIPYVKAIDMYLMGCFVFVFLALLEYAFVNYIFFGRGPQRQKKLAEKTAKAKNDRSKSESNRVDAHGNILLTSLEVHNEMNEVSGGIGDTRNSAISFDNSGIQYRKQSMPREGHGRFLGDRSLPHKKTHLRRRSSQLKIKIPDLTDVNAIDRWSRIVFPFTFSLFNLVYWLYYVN
α1β3γ2L GABAA receptors (α+−β− and γ+−β− transmembrane anesthetic sites), sequence (P18507 40-475): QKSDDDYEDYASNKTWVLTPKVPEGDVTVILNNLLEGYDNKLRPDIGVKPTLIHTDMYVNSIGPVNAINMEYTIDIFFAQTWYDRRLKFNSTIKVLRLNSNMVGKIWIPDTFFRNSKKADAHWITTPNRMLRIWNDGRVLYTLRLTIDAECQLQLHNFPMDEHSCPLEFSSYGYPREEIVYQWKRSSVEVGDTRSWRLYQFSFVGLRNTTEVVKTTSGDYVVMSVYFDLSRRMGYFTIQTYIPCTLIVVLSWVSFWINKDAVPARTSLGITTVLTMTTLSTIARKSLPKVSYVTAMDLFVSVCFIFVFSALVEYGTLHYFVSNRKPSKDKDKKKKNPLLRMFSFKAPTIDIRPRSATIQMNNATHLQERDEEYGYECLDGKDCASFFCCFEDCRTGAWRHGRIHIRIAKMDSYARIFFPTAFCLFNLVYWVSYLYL
α1β3γ2L GABAA receptors (β+−α− transmembrane anesthetic sites), sequence (P14867 28-456): as the sequence (P14867 28-456) above
α1β3γ2L GABAA receptors (β+−α− transmembrane anesthetic sites), sequence (P28472 26-473): as the sequence (P28472 26-473) above
α1β3γ2L GABAA receptors (β+−α− transmembrane anesthetic sites), sequence (P18507 40-475): as the sequence (P18507 40-475) above
T1 sequence (P14867 28-456): as the sequence (P14867 28-456) above
T1 sequence (P28472 26-473): as the sequence (P28472 26-473) above
T1 sequence (P18507 40-475): as the sequence (P18507 40-475) above
α1β3γ2L GABAA receptor open and closed states, sequence (P14867 28-456): as the sequence (P14867 28-456) above
α1β3γ2L GABAA receptor open and closed states, sequence (P28472 26-473): as the sequence (P28472 26-473) above
α1β3γ2L GABAA receptor open and closed states, sequence (P18507 40-475): as the sequence (P18507 40-475) above

CCOC(=O)c1cncn1[C@H](C)c1ccccc1 [etomidate, reference compound]
slope of direct activation concentration-response curve (α1β3γ2L GABAA receptors [1]; fit to equation 1): 1.2 | fold potentiation of EC5 GABA-evoked current (α1β3γ2L GABAA receptors [2]; 100 μM drug, representative traces, single oocyte): 14 fold | EC5 GABA-evoked currents in the presence of drug, as % of those evoked by 1 mM GABA (α1β3γ2L GABAA receptors [2]): 90 ± 7% | maximum peak current amplitude at high drug concentrations, relative to that produced by 1 mM GABA (α1β3γ2L GABAA receptors [2]): 95% | slope of potentiation concentration-response curve (α1β3γ2L GABAA receptors [2]): 1.2

CCOC(=O)c1cncn1C(C)c1cccc2ccccc12 (stereo not shown) [naphthalene-etomidate]
fold lower affinity for the open state of the receptor versus etomidate ([3]; comparison of dissociation constants): 27 fold | fold higher affinity for the open state than the closed state ([3]; from Kdopen and Kdclosed): 4.4 fold | fold greater reduction in currents potentiated by propofol compared to currents potentiated by etomidate or pentobarbital (α1β3γ2L GABAA receptors [4]): approximately 2 fold | Percent change in peak current amplitude, GABA EC5 + Diazepam (α1β3γ2L GABAA receptors [4]; GABA Pre-exposure, diazepam 1 μM, mean ± SD, n = 6): 33 ± 6.9% | Percent change in peak current amplitude, GABA EC5 + Etomidate (α1β3γ2L GABAA receptors [4]; [9]): −24 ± 1.8% | Percent change in peak current amplitude, GABA EC50 (α1β3γ2L GABAA receptors [4]; [9]): 21 ± 9% | Percent change in peak current amplitude, GABA EC5 + Pentobarbital (α1β3γ2L GABAA receptors [4]; [9]): −21 ± 5.4% | Percent change in peak current amplitude, GABA EC5 + Propofol (α1β3γ2L GABAA receptors [4]; [9]): −49 ± 4.69% | Percent change in peak current amplitude, GABA EC5 + Etomidate (α1β3γ2L GABAA receptors [4]; [10]): −47 ± 4.1% | Percent change in peak current amplitude, GABA EC50 (α1β3γ2L GABAA receptors [4]; [10]): −8.8 ± 8.6% | Percent change in peak current amplitude, GABA EC5 + Pentobarbital (α1β3γ2L GABAA receptors [4]; [10]): −45 ± 7.9% | Percent change in peak current amplitude, GABA EC5 + Propofol (α1β3γ2L GABAA receptors [4]; [10]): −68 ±6.0% | Percent change in peak current amplitude, GABA EC5 + Etomidate (α1β3γ2L GABAA receptors [4]; [11]): −33 ± 7.8% | Percent change in peak current amplitude, GABA EC50 (α1β3γ2L GABAA receptors [4]; Simultaneous Addition, mean ± SD, n = 6 oocytes): 7.3 ± 8.8% | Percent change in peak current amplitude, GABA EC5 + Pentobarbital (α1β3γ2L GABAA receptors [4]; [11]): −33 ± 7.1% | Percent change in peak current amplitude, GABA EC5 + Propofol (α1β3γ2L GABAA receptors [4]; [11]): −63 ± 7.3% | slope for inhibition of [3H]azi-etomidate photoincorporation [5]: −2.0 | slope for inhibition of [3H]azi-etomidate photoincorporation [5, 12]: −1.2 | inhibition of specific [3H]azi-etomidate photoincorporation ([5]; highest concentrations studied): ≥ 90% | directly activated currents compared with those activated by etomidate (α1β3γ2L GABAA receptors [1]; same oocyte, no GABA): orders of magnitude smaller | EC5 GABA-evoked currents in the presence of drug, as % of those evoked by 1 mM GABA (α1β3γ2L GABAA receptors [2]): 11 ± 2.7% and 11% | maximum peak current amplitude at high drug concentrations, relative to that produced by 1 mM GABA (α1β3γ2L GABAA receptors [2]): 11% | slope of potentiation concentration-response curve (α1β3γ2L GABAA receptors [2]): 3 | slope for inhibition of R-[3H]mTFD-MPAB photoincorporation [6]: −1.3 | slope for inhibition of R-[3H]mTFD-MPAB photoincorporation [6, 12]: −2.0 | inhibition of specific R-[3H]mTFD-MPAB photoincorporation ([6]; highest concentrations studied): ≥ 90% | near aqueous-saturating concentration (Aqueous saturation): ~300 µM | fold increase in EC50 for propofol potentiation of EC5 GABA-evoked currents (α1β3γ2L GABAA receptors [7]; 300 μM naphthalene-etomidate): 6 fold | minimum normalized peak current at high naphthalene-etomidate concentrations (α1β3γ2L GABAA receptors [7]; [13]): 24% | slope for inhibition of propofol-potentiated currents (α1β3γ2L GABAA receptors [7]; [13]): −3.9

CCCC(C)C1(CC)C(=O)NC(=O)NC1=O (stereo not shown) [pentobarbital]
binding selectivity for β+–α− sites as compared to α+–β−/γ+–β− sites [8]: reverse selectivity

CC(C)c1cccc(C(C)C)c1O [propofol]
binding selectivity for β+–α− sites as compared to α+–β−/γ+–β− sites [8]: essentially no selectivity at all; also recorded: virtually no binding site selectivity | peak current amplitude (normalized to 1 mM GABA) produced with EC5 GABA (α1β3γ2L GABAA receptors [7]; 10 μM propofol, absence of naphthalene-etomidate): 61% | EC50 (α1β3γ2L GABAA receptors [7]; EC50 for propofol potentiation of EC5 GABA-evoked currents, absence of naphthalene-etomidate, minimum constrained to 5%): 6 µM | maximal peak current response at high propofol concentrations (α1β3γ2L GABAA receptors [7]; [14]): 88% | slope of propofol potentiation curve (α1β3γ2L GABAA receptors [7]; [14]): 1.5 | maximal peak current response at high propofol concentrations (α1β3γ2L GABAA receptors [7]; [15]): 87% | slope of propofol potentiation curve (α1β3γ2L GABAA receptors [7]; [15]): 1.0
